In patent publication US20230085307A1, “PYRIDAZINONE COMPOUND AND HERBICIDE” (NISSAN CHEMICAL CORPORATION, priority 2019, published 2023):

Key:
Chinese sprangletop = test: Test Example 3: herbicidal effect by foliage application, Wagner pot (Table 18, symbol D); assay type: in vivo, chinese sprangletop (Leptochloa chinensis); conditions: for herbicidal effect on D: Chinese sprangletop: amount of applied herbicide 320 g/ha; for herbicidal effect on Chinese sprangletop (D): 320 g/ha
In short: (§1)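 Plants were sown in alluvial soil held under 0.1–0.5 cm standing water and grown 14 days in a greenhouse at 25–30 °C. An emulsifiable formulation, water-diluted to the set dose, was then sprayed onto the foliage, and effects were scored three weeks later using previously defined criteria.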

wild oat = test: Test Example 5: herbicidal effect by foliage application, plastic box (Table 20, symbol I); assay type: in vivo, wild oat (Avena fatua); conditions: evaluated three weeks after application
In short: (§2)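 Sow seeds spot-wise in sterilized diluvial soil; cover with ~1.5 cm soil. Grow 14 days in greenhouse, 25° C. to 30° C. Spray foliage with emulsion diluted to predetermined amount. Rate effect after 3 weeks.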

windgrass = test: Test Example 5: herbicidal effect by foliage application, plastic box (Table 20, symbol L); assay type: in vivo, windgrass (Apera spica-venti); conditions: evaluated three weeks after application
In short: as §2

chickweed = test: Test Example 5: herbicidal effect by foliage application, plastic box (Table 20, symbol P); assay type: in vivo, common chickweed (Stellaria media); conditions: evaluated three weeks after application
Text: (§3) [Test Example 5] Herbicidal Effect Test by Foliage Application
(§4) Sterilized diluvial soil was placed in a plastic box having a length of 21 cm, a width of 13 cm, and a depth of 7 cm. The seeds of each of southern crabgrass, green foxtail, barnyard grass, wild oat, blackgrass, Italian ryegrass, windgrass, velvetleaf, redroot pigweed, lambsquarters, chickweed, false cleavers, persian speedwell, corn, soybean, rice, wheat, beet, and rapeseed were sowed in a spot-like manner and covered with the soil having a thickness of about 1.5 cm. Thereafter, the plants were grown in a greenhouse at 25° C. to 30° C. After 14-day growth of the plants, the emulsion agent of the compound of the present invention prepared according to Formulation Example 2 was diluted with water so as to achieve a predetermined herbicide amount, and the diluted emulsion agent was uniformly applied to a foliage part with a small-sized spray. Three weeks after the herbicide application, the effect of the herbicide on each plant was evaluated according to the criteria of Test Example 1.

barnyard grass [1] = test: Test Example 3: herbicidal effect by foliage application, Wagner pot (Table 18, symbol H); assay type: in vivo, barnyard grass (Echinochloa crus-galli); conditions: for herbicidal effect on H: barnyard grass: amount of applied herbicide 320 g/ha; for herbicidal effect on barnyard grass (H): 320 g/ha
In short: as §1

southern crabgrass [2] = test: Test Example 5: herbicidal effect by foliage application, plastic box (Table 20, symbol F); assay type: in vivo, southern crabgrass (Digitaria ciliaris)
In short: as §2

barnyard grass [3] = test: Test Example 5: herbicidal effect by foliage application, plastic box (Table 20, symbol H); assay type: in vivo, barnyard grass (Echinochloa crus-galli)
In short: as §2

Italian ryegrass = test: Test Example 5: herbicidal effect by foliage application, plastic box (Table 20, symbol K); assay type: in vivo, Italian ryegrass (Lolium multiflorum); conditions: evaluated three weeks after application
In short: as §2

green foxtail [4] = test: Test Example 5: herbicidal effect by foliage application, plastic box (Table 20, symbol G); assay type: in vivo, green foxtail (Setaria viridis)
In short: as §2

rice flat sedge = test: Test Example 3: herbicidal effect by foliage application, Wagner pot (Table 18, symbol E); assay type: in vivo, rice flat sedge (Cyperus iria); conditions: for herbicidal effect on E: rice flat sedge: amount of applied herbicide 320 g/ha; for herbicidal effect on rice flat sedge (E): 320 g/ha
In short: as §1

velvetleaf [5] = test: Test Example 5: herbicidal effect by foliage application, plastic box (Table 20, symbol M); assay type: in vivo, velvetleaf (Abutilon theophrasti)
In short: as §2

redroot pigweed [6] = test: Test Example 5: herbicidal effect by foliage application, plastic box (Table 20, symbol N); assay type: in vivo, redroot pigweed (Amaranthus retroflexus)
Text: as §3, §4

blackgrass = test: Test Example 5: herbicidal effect by foliage application, plastic box (Table 20, symbol J); assay type: in vivo, blackgrass (Alopecurus myosuroides); conditions: evaluated three weeks after application
In short: as §2

lambsquarters [7] = test: Test Example 5: herbicidal effect by foliage application, plastic box (Table 20, symbol O); assay type: in vivo, lambsquarters (Chenopodium album)
In short: as §2

green foxtail [8] = test: Test Example 4: herbicidal effect by soil treatment (Table 19, symbol G); assay type: in vivo, green foxtail (Setaria viridis); conditions: amount of applied herbicide 320 g/ha
In short: (§5)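 Applied as a water-diluted emulsion, the compound was sprayed onto soil covering newly sown seeds. Evaluation came three weeks after application, in a greenhouse held at 25° C. to 30° C.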

lambsquarters [9] = test: Test Example 4: herbicidal effect by soil treatment (Table 19, symbol O); assay type: in vivo, lambsquarters (Chenopodium album); conditions: amount of applied herbicide 320 g/ha
Text: (§6) [Test Example 4] Herbicidal Effect Test by Soil Treatment
as §4, with “Subsequently,” for “Thereafter, the plants were grown in a greenhouse at 25° C. to 30° C. After 14-day growth of the plants,”, “the surface of the soil” for “a foliage part”, “spray. The plastic box was placed in a greenhouse at 25° C. to 30° C. for growth of the plants.” for “spray.”

barnyard grass [10] = test: Test Example 4: herbicidal effect by soil treatment (Table 19, symbol H); assay type: in vivo, barnyard grass (Echinochloa crus-galli); conditions: amount of applied herbicide 320 g/ha
In short: as §5

velvetleaf [11] = test: Test Example 4: herbicidal effect by soil treatment (Table 19, symbol M); assay type: in vivo, velvetleaf (Abutilon theophrasti); conditions: amount of applied herbicide 320 g/ha
Text: as §6
as §4, with “Subsequently,” for “Thereafter, the plants were grown in a greenhouse at 25° C. to 30° C. After 14-day growth of the plants,”, “the surface of the soil” for “a foliage part”, “spray. The plastic box was placed in a greenhouse at 25° C. to 30° C. for growth of the plants.” for “spray.”

redroot pigweed [12] = test: Test Example 4: herbicidal effect by soil treatment (Table 19, symbol N); assay type: in vivo, redroot pigweed (Amaranthus retroflexus); conditions: amount of applied herbicide 320 g/ha
Text: as §6
as §4, with “Subsequently,” for “Thereafter, the plants were grown in a greenhouse at 25° C. to 30° C. After 14-day growth of the plants,”, “the surface of the soil” for “a foliage part”, “spray. The plastic box was placed in a greenhouse at 25° C. to 30° C. for growth of the plants.” for “spray.”

southern crabgrass [13] = test: Test Example 4: herbicidal effect by soil treatment (Table 19, symbol F); assay type: in vivo, southern crabgrass (Digitaria ciliaris); conditions: amount of applied herbicide 320 g/ha
In short: as §5

persian speedwell = test: Test Example 5: herbicidal effect by foliage application, plastic box (Table 20, symbol R); assay type: in vivo, Persian speedwell (Veronica persica); conditions: 320 g/ha, foliage application after 14-day growth, evaluated three weeks after application
In short: as §2

[14] = foliage application, AAH 320 g/ha
[15] = foliage application, AAH 320 g/ha, evaluated three weeks after application
[16] = foliage application, 320 g/ha, three weeks after application
[17] = 320 g/ha, foliage application after 14-day growth
[18] = 320 g/ha, foliage application after 14-day growth, evaluated three weeks after application
[19] = amount of applied herbicide 320 g/ha, foliage application after 14-day growth
[20] = amount of applied herbicide 320 g/ha, foliage application after 14-day growth, evaluated three weeks after application

SMILES: COC(=O)COc1c(C)nn(C)c(=O)c1-c1c(-c2ccc(OC(F)F)cc2)sc2ccc(F)cc12 [2-306]
- herbicidal effect on D: Chinese sprangletop (Chinese sprangletop): 3 (Herbicidal rate of 40% or more and less than 70%)
- I: wild oat, herbicidal effect (criteria 0-5) (wild oat; [14]): 0 (Herbicidal rate of 5% or less (almost no effect))
- L: windgrass, herbicidal effect (criteria 0-5) (windgrass; [14]): 0 (Herbicidal rate of 5% or less (almost no effect))
- P: chickweed, herbicidal effect (criteria 0-5) (chickweed; [14]): 5 (Herbicidal rate of 90% or more (almost completely withered))
- herbicidal effect on H: barnyard grass (barnyard grass [1]): 3 (Herbicidal rate of 40% or more and less than 70%)
- F: southern crabgrass, herbicidal effect (criteria 0-5) (southern crabgrass [2]; [15]): 0 (Herbicidal rate of 5% or less (almost no effect))
- H: barnyard grass, herbicidal effect (criteria 0-5) (barnyard grass [3]; [15]): 0 (Herbicidal rate of 5% or less (almost no effect))
- K: Italian ryegrass, herbicidal effect (criteria 0-5) (Italian ryegrass; [14]): 0 (Herbicidal rate of 5% or less (almost no effect))
- G: green foxtail, herbicidal effect (criteria 0-5) (green foxtail [4]; [15]): 0 (Herbicidal rate of 5% or less (almost no effect))
- herbicidal effect on E: rice flat sedge (rice flat sedge): 3 (Herbicidal rate of 40% or more and less than 70%)
- M: velvetleaf, herbicidal effect (criteria 0-5) (velvetleaf [5]; [15]): 0 (Herbicidal rate of 5% or less (almost no effect))
- N: redroot pigweed, herbicidal effect (criteria 0-5) (redroot pigweed [6]; [15]): 0 (Herbicidal rate of 5% or less (almost no effect))
- J: blackgrass, herbicidal effect (criteria 0-5) (blackgrass; [14]): 0 (Herbicidal rate of 5% or less (almost no effect))
- O: lambsquarters, herbicidal effect (criteria 0-5) (lambsquarters [7]; [15]): 2 (Herbicidal rate of 20% or more and less than 40%)

SMILES: Cc1nn(C)c(=O)c(-c2c(-c3ccsc3)sc3ccc(F)cc23)c1O [2-463]
- herbicidal effect on D: Chinese sprangletop (Chinese sprangletop): 0 (Herbicidal rate of 5% or less (almost no effect))
- herbicidal effect on H: barnyard grass (barnyard grass [1]): 3 (Herbicidal rate of 40% or more and less than 70%)
- F: southern crabgrass, herbicidal effect grade (southern crabgrass [2]; [16]): 4 (Herbicidal rate of 70% or more and less than 90%)
- herbicidal effect, G: green foxtail (green foxtail [8]): 0 (Herbicidal rate of 5% or less (almost no effect))
- H: barnyard grass, herbicidal effect grade (barnyard grass [3]; [16]): 3 (Herbicidal rate of 40% or more and less than 70%)
- herbicidal effect, O: lambsquarters (lambsquarters [9]): 3 (Herbicidal rate of 40% or more and less than 70%)
- G: green foxtail, herbicidal effect grade (green foxtail [4]; [16]): 3 (Herbicidal rate of 40% or more and less than 70%)
- herbicidal effect on E: rice flat sedge (rice flat sedge): 0 (Herbicidal rate of 5% or less (almost no effect))
- M: velvetleaf, herbicidal effect grade (velvetleaf [5]; [16]): 5 (Herbicidal rate of 90% or more (almost completely withered))
- N: redroot pigweed, herbicidal effect grade (redroot pigweed [6]; [16]): 5 (Herbicidal rate of 90% or more (almost completely withered))
- herbicidal effect, H: barnyard grass (barnyard grass [10]): 3 (Herbicidal rate of 40% or more and less than 70%)
- herbicidal effect, M: velvetleaf (velvetleaf [11]): 3 (Herbicidal rate of 40% or more and less than 70%)
- O: lambsquarters, herbicidal effect grade (lambsquarters [7]; [16]): 3 (Herbicidal rate of 40% or more and less than 70%)
- herbicidal effect, N: redroot pigweed (redroot pigweed [12]): 4 (Herbicidal rate of 70% or more and less than 90%)
- herbicidal effect, F: southern crabgrass (southern crabgrass [13]): 2 (Herbicidal rate of 20% or more and less than 40%)

SMILES: CCCC(=O)Oc1c(C)nn(C)c(=O)c1-c1c(-c2ccc(OC)c(OC)c2)sc2c(F)cccc12 [4-014]
- herbicidal effect on Chinese sprangletop (D) (Chinese sprangletop): 0 (Herbicidal rate of 5% or less (almost no effect))
- herbicidal effect on I: wild oat (evaluation grade 0-5) (wild oat; [17]): 0 (Herbicidal rate of 5% or less (almost no effect))
- herbicidal effect on L: windgrass (evaluation grade 0-5) (windgrass; [17]): 0 (Herbicidal rate of 5% or less (almost no effect))
- herbicidal effect on P: chickweed (evaluation grade 0-5) (chickweed; [17]): 5 (Herbicidal rate of 90% or more (almost completely withered))
- herbicidal effect on barnyard grass (H) (barnyard grass [1]): 3 (Herbicidal rate of 40% or more and less than 70%)
- herbicidal effect on F: southern crabgrass (evaluation grade 0-5) (southern crabgrass [2]; [18]): 0 (Herbicidal rate of 5% or less (almost no effect))
- herbicidal effect on H: barnyard grass (evaluation grade 0-5) (barnyard grass [3]; [18]): 2 (Herbicidal rate of 20% or more and less than 40%)
- herbicidal effect on K: Italian ryegrass (evaluation grade 0-5) (Italian ryegrass; [17]): 1 (Herbicidal rate of 5% or more and less than 20%)
- herbicidal effect on G: green foxtail (evaluation grade 0-5) (green foxtail [4]; [18]): 4 (Herbicidal rate of 70% or more and less than 90%)
- herbicidal effect on rice flat sedge (E) (rice flat sedge): 0 (Herbicidal rate of 5% or less (almost no effect))
- herbicidal effect on M: velvetleaf (evaluation grade 0-5) (velvetleaf [5]; [18]): 3 (Herbicidal rate of 40% or more and less than 70%)
- herbicidal effect on N: redroot pigweed (evaluation grade 0-5) (redroot pigweed [6]; [18]): 1 (Herbicidal rate of 5% or more and less than 20%)
- herbicidal effect on O: lambsquarters (evaluation grade 0-5) (lambsquarters [7]; [18]): 0 (Herbicidal rate of 5% or less (almost no effect))
- herbicidal effect on R: persian speedwell (evaluation grade 0-5) (persian speedwell): 3 (Herbicidal rate of 40% or more and less than 70%)

SMILES: Cc1nn(C)c(=O)c(-c2c(-c3cccc(C(F)(F)F)c3)sc3c(Cl)cccc23)c1O [4-072]
- herbicidal effect on Chinese sprangletop (D) (Chinese sprangletop): 3 (Herbicidal rate of 40% or more and less than 70%)
- Herbicidal effect by foliage application, I: wild oat (wild oat; [19]): 0 (Herbicidal rate of 5% or less (almost no effect))
- Herbicidal effect by foliage application, L: windgrass (windgrass; [19]): 0 (Herbicidal rate of 5% or less (almost no effect))
- Herbicidal effect by foliage application, P: chickweed (chickweed; [19]): 5 (Herbicidal rate of 90% or more (almost completely withered))
- herbicidal effect on barnyard grass (H) (barnyard grass [1]): 3 (Herbicidal rate of 40% or more and less than 70%)
- Herbicidal effect by foliage application, F: southern crabgrass (southern crabgrass [2]; [20]): 4 (Herbicidal rate of 70% or more and less than 90%)
- Herbicidal effect by foliage application, H: barnyard grass (barnyard grass [3]; [20]): 1 (Herbicidal rate of 5% or more and less than 20%)
- Herbicidal effect by foliage application, K: Italian ryegrass (Italian ryegrass; [19]): 1 (Herbicidal rate of 5% or more and less than 20%)
- Herbicidal effect by foliage application, G: green foxtail (green foxtail [4]; [20]): 3 (Herbicidal rate of 40% or more and less than 70%)
- herbicidal effect on rice flat sedge (E) (rice flat sedge): 4 (Herbicidal rate of 70% or more and less than 90%)
- Herbicidal effect by foliage application, M: velvetleaf (velvetleaf [5]; [20]): 3 (Herbicidal rate of 40% or more and less than 70%)
- Herbicidal effect by foliage application, N: redroot pigweed (redroot pigweed [6]; [20]): 5 (Herbicidal rate of 90% or more (almost completely withered))
- Herbicidal effect by foliage application, J: blackgrass (blackgrass; [19]): 0 (Herbicidal rate of 5% or less (almost no effect))
- Herbicidal effect by foliage application, O: lambsquarters (lambsquarters [7]; [20]): 2 (Herbicidal rate of 20% or more and less than 40%)
